This test deals with HIV-1 (H9IIIB strain). The test is described as follows: Cell-based HIV infection assay using a reporter (Cell-Based), MT4-GFP cells. The note with it: Human immunodeficiency virus 1, MT4-GFP cells infected with HIV-1 H9IIIB; 50% normal human serum; mean of at least two independent experiments; read-out: Cell-based IP. An outline of the steps:
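MT4-GFP cells (HIV LTR-driven GFP) infected 24 h with HIV-1 H9IIIB at low MOI, then washed and plated with compounds in RPMI + 50% normal human serum, 0.4% DMSO final. Green cells counted at 24 and 48 h; R0 = 48 h/24 h ratio, inhibition normalized to DMSO and triple-drug control; IC50 from 4-parameter fit.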
For the compound `C[C@H]1CNC[C@H](CCc2c(F)cccc2NC(=O)[C@@H](N)[C@@H](c2cc(F)cc(F)c2)C2CCOCC2)N1S(=O)(=O)c1ccccc1` [Example 294, (βR)-3,5-difluoro-N-(3-fluoro-2-{2-[(2S,6S)-6-methyl-1-(phenylsulfonyl)piperazin-2-yl]ethyl}phenyl)-β-(tetrahydro-2H-pyran-4-yl)-L-phenylalaninamide], the IC50 came out at 40 nM.

`COC(=O)N[C@H](C(=O)Nc1cccc(F)c1CC[C@H]1CNC[C@H](C)N1S(=O)(=O)c1ccccc1)[C@@H](c1ccc(F)c(F)c1)C1CCOCC1` [Example 295, (βR)-3,4-difluoro-N-(3-fluoro-2-{2-[(2S,6S)-6-methyl-1-(phenylsulfonyl)piperazin-2-yl]ethyl}phenyl)-Nα-(methoxycarbonyl)-β-(tetrahydro-2H-pyran-4-yl)-L-phenylalaninamide]: the IC50 stood at 4.2 nM.

In the case of `COC(=O)N[C@H](C(=O)Nc1cccc(F)c1CC[C@H]1CNC[C@H](C)N1S(=O)(=O)c1ccccc1)[C@@H](c1cc(F)cc(F)c1)C1CCOCC1` [Example 296, (βR)-3,5-difluoro-N-(3-fluoro-2-{2-[(2S,6S)-6-methyl-1-(phenylsulfonyl)piperazin-2-yl]ethyl}phenyl)-Nα-(methoxycarbonyl)-β-(tetrahydro-2H-pyran-4-yl)-L-phenylalaninamide], the IC50 is 9.9 nM.

For `COC(=O)N[C@H](C(=O)Nc1cccc(F)c1CC[C@H]1CNC[C@H](C)N1S(=O)(=O)c1ccccc1)C1(c2ccc(F)c(F)c2)CCOCC1` [Example 297, methyl {(1S)-1-[4-(3,4-difluorophenyl)tetrahydro-2H-pyran-4-yl]-2-[(3-fluoro-2-{2-[(2S,6S)-6-methyl-1-(phenylsulfonyl)piperazin-2-yl]ethyl}phenyl)amino]-2-oxoethyl}carbamate], the IC50 worked out at 16 nM.

Take `C[C@@H]1CNC[C@H](CCc2c(F)cncc2NC(=O)[C@@H](N)[C@@H](c2ccc(Cl)cc2)C2CCOCC2)N1S(=O)(=O)c1ccc(Cl)cc1` [Example 298, (βR)-4-chloro-N-[4-(2-{(2S,6R)-1-[(4-chlorophenyl)sulfonyl]-6-methylpiperazin-2-yl}ethyl)-5-fluoropyridin-3-yl]-β-(tetrahydro-2H-pyran-4-yl)-L-phenylalaninamide]: the IC50 stood at 36 nM.

Take `C[C@@H]1C[C@](c2ccc(Cl)cc2)([C@H](N)C(=O)Nc2cccc(F)c2CC[C@H]2CNC[C@H](C)N2S(=O)(=O)c2ccccc2)C[C@H](C)O1` [Example 300, (S)-2-amino-2-((2R,4r,6S)-4-(4-chlorophenyl)-2,6-dimethyltetrahydro-2H-pyran-4-yl)-N-(3-fluoro-2-(2-((2S,6S)-6-methyl-1-(phenylsulfonyl)piperazin-2-yl)ethyl)phenyl)acetamide]: the IC50 was found to be 98 nM.

Turning to `C[C@@H]1C[C@](c2ccc(Cl)cc2)([C@H](N)C(=O)Nc2cccc(F)c2CC[C@H]2CNC[C@@H](C)N2S(=O)(=O)c2ccccc2)C[C@H](C)O1` [Example 301, (S)-2-amino-2-((2R,4r,6S)-4-(4-chlorophenyl)-2,6-dimethytetrahydro-2H-pyran-4-yl)-N-(3-fluoro-2-(2-((2S,6R)-6-methyl-1-(phenylsulfonyl)piperazin-2-yl)ethyl)phenyl)acetamide], the IC50 was determined as 480 nM.

Regarding `O=C(C[C@@H](c1ccc(F)cc1)c1cc(F)cc(F)c1)Nc1cncc(F)c1CC[C@H]1CNCCN1S(=O)(=O)CC1CC1` [Example 302, (3S)-N-[4-(2-{(2S)-1-[(cyclopropylmethyl)sul-fonyl]piperazin-2-yl}ethyl)-5-fluoropyridin-3-yl]-3-(3,5-difluorophenyl)-3-(4-fluorophenyl)propanamide], the IC50 was 24 nM.

For `O=C(C[C@@H](c1ccc(F)cc1)c1cc(F)cc(F)c1)Nc1cncc(F)c1CC[C@H]1CNCCN1S(=O)(=O)c1ccccn1` [Example 304, (3S)-3-(3,5-difluorophenyl)-3-(4-fluorophenyl)-N-(5-fluoro-4-{2-[(2S)-1-(pyridin-2-ylsulfonyl)piperazin-2-yl]ethyl}pyridin-3-yl)propanamide], the IC50 worked out at 3.6 nM.

For `O=C(C[C@@H](c1ccc(F)cc1)c1cc(F)cc(F)c1)Nc1cncc(F)c1CC[C@H]1CNCCN1S(=O)(=O)c1cccnc1` [Example 305, (3S)-3-(3,5-difluorophenyl)-3-(4-fluorophenyl)-N-(5-fluoro-4-{2-[(2S)-1-(pyridin-3-ylsulfonyl)piperazin-2-yl]ethyl}pyridin-3-yl)propanamide], the IC50 came out at 8.2 nM.

On to `Cn1ccc(S(=O)(=O)N2CCNC[C@@H]2CCc2c(F)cncc2NC(=O)C[C@@H](c2ccc(F)cc2)c2cc(F)cc(F)c2)n1` [Example 306, (3S)-3-(3,5-difluorophenyl)-N-[5-fluoro-4-(2-{(2S)-1-[(1-methyl-1H-pyrazol-3-yl)sulfonyl]piperazin-2-yl}ethyl)pyridin-3-yl]-3-(4-fluorophenyl)propanamide], for which the IC50 came out at 6.5 nM.

On to `Nc1ccc(S(=O)(=O)N2CCNC[C@@H]2CCc2c(F)cncc2NC(=O)C[C@@H](c2ccc(F)cc2)c2cc(F)cc(F)c2)cn1` [Example 307, (3S)-N-[4-(2-{(2S)-1-[(6-aminopyridin-3-yl)sulfonyl]piperazin-2-yl}ethyl)-5-fluoropyridin-3-yl]-3-(3,5-difluorophenyl)-3-(4-fluorophenyl)propanamide], for which the IC50 was found to be 130 nM.

With `O=C1COc2ccc(S(=O)(=O)N3CCNC[C@@H]3CCc3c(F)cncc3NC(=O)C[C@@H](c3ccc(F)cc3)c3cc(F)cc(F)c3)cc2N1` [Example 308, (3S)-3-(3,5-difluorophenyl)-N-[5-fluoro-4-(2-{(2S)-1-[(3-oxo-3,4-dihydro-2H-1,4-benzoxazin-6-yl)sulfonyl]piperazin-2-yl}ethyl)pyridin-3-yl]-3-(4-fluorophenyl)propanamide], the IC50 stood at 180 nM.

For the compound `CC(=O)Nc1nc(S(=O)(=O)N2CCNC[C@@H]2CCc2c(F)cncc2NC(=O)C[C@@H](c2ccc(F)cc2)c2cc(F)cc(F)c2)c(C)s1` [Example 309, (3S)-N-(4-{2-[(2S)-1-{[2-(acetylamino)-5-methyl-1,3-thiazol-4-yl]sulfonyl}piperazin-2-yl]ethyl}-5-fluoropyridin-3-yl)-3-(3,5-difluorophenyl)-3-(4-fluorophenyl)propanmide], the IC50 was found to be 140 nM.

For `O=C(C[C@@H](c1ccc(F)cc1)c1cc(F)cc(F)c1)Nc1cncc(F)c1CC[C@H]1CNCCN1S(=O)(=O)Cc1ccc(C(F)(F)F)cc1` [Example 310, (3S)-3-(3,5-difluorophenyl)-3-(4-fluorophenyl)-N-(5-fluoro-4-{2-[(2S)-1-{[4-(trifluoromethyl)benzyl]sulfonyl}piperazin-2-yl]ethyl}pyridin-3-yl)propanamide], the IC50 came to 1700 nM.

For `O=C(C[C@@H](c1ccc(F)cc1)c1cc(F)cc(F)c1)Nc1cncc(F)c1CC[C@H]1CNCCN1S(=O)(=O)c1ccc(-c2ccccn2)s1` [Example 311, (3S)-3-(3,5-difluorophenyl)-3-(4-fluorophenyl)-N-[5-fluoro-4-(2-{(2S)-1-[(5-pyridin-2-ylthiophen-2-yl)sulfonyl]piperazin-2-yl}ethyl)pyridin-3-yl]propanamide], the IC50 was 20 nM.

Regarding `CCOC(=O)c1nc(-c2ccc(S(=O)(=O)N3CCNC[C@@H]3CCc3c(F)cncc3NC(=O)C[C@@H](c3ccc(F)cc3)c3cc(F)cc(F)c3)s2)no1` [Example 312, ethyl 3-[5-({(2S)-2-[2-(3-{[(3S)-3-(3,5-difluorophenyl)-3-(4-fluorophenyl)propanoyl]amino}-5-fluoropyridin-4-yl)ethyl]piperazin-1-yl}sulfonyl)thiophen-2-yl]-1,2,4-oxadiazole-5-carboxylate], the IC50 came out at 140 nM.

For `CS(=O)(=O)c1ccc(S(=O)(=O)N2CCNC[C@@H]2CCc2c(F)cncc2NC(=O)C[C@@H](c2ccc(F)cc2)c2cc(F)cc(F)c2)cc1` [Example 313, (3S)-3-(3,5-difluorophenyl)-N-(5-fluoro-4-{2-[(2S)-1-{[4-(methylsulfonyl)phenyl]sulfonyl}piperazin-2-yl]ethyl}pyridin-3-yl)-3-(4-fluorophenyl)propanamide], the IC50 was determined as 48 nM.

Turning to `O=C(C[C@@H](c1ccc(F)cc1)c1cc(F)cc(F)c1)Nc1cncc(F)c1CC[C@H]1CNCCN1S(=O)(=O)c1ccc(OC(F)(F)F)cc1` [Example 314, (3S)-3-(3,5-difluorophenyl)-3-(4-fluorophenyl)-N-(5-fluoro-4-{2-[(2S)-1-{[4-(trifluoromethoxy)phenyl]sulfonyl}piperazin-2-yl]ethyl}pyridin-3-yl)propanamide], the IC50 was found to be 9.2 nM.

As for `O=C(C[C@@H](c1ccc(F)cc1)c1cc(F)cc(F)c1)Nc1cncc(F)c1CC[C@H]1CNCCN1S(=O)(=O)CC(F)(F)F` [Example 315, (3S)-3-(3,5-difluorophenyl)-3-(4-fluorophenyl)-N-[5-fluoro-4-(2-{(2S)-1-[(2,2,2-trifluoroethyl)sulfonyl]piperazin-2-yl}ethyl)pyridin-3-yl]propanamide], the IC50 worked out at 1900 nM.

Take `Cn1cc(S(=O)(=O)N2CCNC[C@@H]2CCc2c(F)cncc2NC(=O)C[C@@H](c2ccc(F)cc2)c2cc(F)cc(F)c2)cn1` [Example 316, (3S)-3-(3,5-difluorophenyl)-N-[5-fluoro-4-(2-{(2S)-1-[(1-methyl-1H-pyrazol-4-yl)sulfonyl]piperazin-2-yl}ethyl)pyridin-3-yl]-3-(4-fluorophenyl)propanamide]: the IC50 was found to be 19 nM.

As to `CCCS(=O)(=O)N1CCNC[C@@H]1CCc1c(F)cncc1NC(=O)C[C@@H](c1ccc(F)cc1)c1cc(F)cc(F)c1` [Example 317, (3S)-3-(3,5-difluorophenyl)-3-(4-fluorophenyl)-N-(5-fluoro-4-{2-[(2S)-1-(propylsulfonyl)piperazin-2-yl]ethyl}pyridin-3-yl)propanamide], the IC50 was 24 nM.
